Test results as given in ChEMBL document CHEMBL1134112, “[3H]MFZ 2-12: a novel radioligand for the dopamine transporter” (Bioorg Med Chem Lett, 2001).

Molecular target: Sodium-dependent dopamine transporter (Homo sapiens, UniProt Q01959)
Experiment: Ability to inhibit human dopamine uptake by the human dopamine transporter in EM4 cells stably infected with Flag HA-hDAT
Type: functional, cell-based

Chain of Sodium-dependent dopamine transporter (Q01959 whole entry): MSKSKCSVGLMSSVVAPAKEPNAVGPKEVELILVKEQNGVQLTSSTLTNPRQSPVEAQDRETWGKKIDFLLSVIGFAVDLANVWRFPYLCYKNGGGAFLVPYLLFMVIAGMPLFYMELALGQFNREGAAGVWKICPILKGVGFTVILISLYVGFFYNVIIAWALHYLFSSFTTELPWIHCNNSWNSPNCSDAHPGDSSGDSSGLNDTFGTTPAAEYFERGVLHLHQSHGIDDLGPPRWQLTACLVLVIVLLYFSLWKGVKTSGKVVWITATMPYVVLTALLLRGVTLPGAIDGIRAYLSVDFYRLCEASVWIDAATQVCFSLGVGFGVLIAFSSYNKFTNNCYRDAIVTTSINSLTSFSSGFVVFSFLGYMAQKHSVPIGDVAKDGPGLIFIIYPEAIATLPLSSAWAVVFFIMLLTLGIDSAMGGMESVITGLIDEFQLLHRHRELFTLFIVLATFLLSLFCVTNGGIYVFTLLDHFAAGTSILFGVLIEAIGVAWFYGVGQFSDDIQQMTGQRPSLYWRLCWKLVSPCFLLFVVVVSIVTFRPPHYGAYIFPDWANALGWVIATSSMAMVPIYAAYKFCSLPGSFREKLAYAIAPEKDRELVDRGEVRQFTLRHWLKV

Structure (SMILES)	IC50 [nM]
COC(=O)[C@@H]1C2CCC(C[C@@H]1c1ccc(Cl)c(Cl)c1)N2C (some centres not stated)	1.1
COC(=O)[C@@H]1C2CCC(C[C@@H]1c1ccc(Cl)c(Cl)c1)N2 (some centres not stated)	1.4
